The supplement of paper PMC5412046
Structures can show the parent of a compound that is named as a salt.

These molecules were tested on SB.mhdgc-1 (assay: AC50 for growth inhibition (viability) (log10 M); higher = less potent). Details: SB.mhdgc-1 (hereditary c.1380delA CDH1 gastric cancer).
In short: (§1)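 Gastric cancer cells from hereditary or sporadic patients, 500 per 1536 well, were exposed to compound for 48 h over 11 threefold dilutions from a final 46 μM. CellTiter-Glo luminescence, read on a ViewLux, measured viability, which was normalised to DMSO. The log half-maximal activity concentration came from four-parameter fits, and only high-quality curve classes were kept.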
In the case of `COc1cc2nc(N3CCN(C(=O)c4ccco4)CC3)nc(N)c2cc1OC` [Prazosin hydrochloride], the “AC50 for growth inhibition (log10 M)” value is reported as -4.98.
`COc1cc2c(Oc3ccc4[nH]c(C)cc4c3F)ncnc2cc1OCCCN1CCCC1` [Cediranib] was tested, and the “AC50 for growth inhibition (log10 M)” value was -5.58.
With `CN(C)C/C=C/C(=O)Nc1cc2c(Nc3ccc(F)c(Cl)c3)ncnc2cc1O[C@H]1CCOC1` [Afatinib] the “AC50 for growth inhibition (log10 M)” value was -4.88.
`CC1C(=O)OC2C(O)C34C5CC(C(C)(C)C)C36C(OC(=O)C6O)OC4(C(=O)O5)C12O` (stereo not drawn) [Ginkgolide B] was tested, and the “AC50 for growth inhibition (log10 M)” value was -4.73.
In the case of `Cc1ccc2c(=O)c3cccc(CC(=O)O)c3oc2c1C` [Vadimezan], the “AC50 for growth inhibition (log10 M)” value is reported as -5.08.
In the case of `CCC(=O)OCC(=O)[C@@]1(OC(=O)CC)[C@@H](C)C[C@H]2[C@@H]3CCC4=CC(=O)C=C[C@]4(C)[C@@]3(F)[C@@H](O)C[C@@]21C` [Betamethasone dipropionate], the “AC50 for growth inhibition (log10 M)” value is reported as -5.28.
In the case of `CC(C)[C@@H](N(CCCN)C(=O)C1=CC=C(C)C=C1)C/2=N/C3=CC(=CC=C3C(=O)N2CC4=CC=CC=C4)Cl` [Ispinesib], the “AC50 for growth inhibition (log10 M)” value is reported as -4.98.
With `C[C@](O)(COc1ccc(C#N)cc1)C(=O)Nc1ccc(C#N)c(C(F)(F)F)c1` [Ostarine] the “AC50 for growth inhibition (log10 M)” value was -5.13.
For `CC1(N2CCC(n3c([C@@H]4CCCNC4)nc4ccccc43)CC2)CCCCCCC1` [MCOPPB], the “AC50 for growth inhibition (log10 M)” value was -5.03.
For `CCOc1cc(/C=C2/C(=O)N(c3ccccc3)N=C2C)cc(Cl)c1OCC(=O)OC`, the “AC50 for growth inhibition (log10 M)” value was -4.83.
For `Oc1ccc2ccccc2c1SSc1c(O)ccc2ccccc12` [IPA-3], the “AC50 for growth inhibition (log10 M)” value was -4.88.
In the case of `Cc1ccc(C(C)(O)c2nc3ccccc3s2)c(C)c1` (stereo not drawn), the “AC50 for growth inhibition (log10 M)” value is reported as -5.38.
For `COc1cc2c(Nc3ccc(Cl)c(Cl)c3F)ncnc2cc1OCC1C[C@@H]2CN(C)C[C@@H]2C1` (stereo partly drawn) [XL-647], the “AC50 for growth inhibition (log10 M)” value was -5.28.
`C[C@@H]\1CC(=O)N\N=C1C2=CC=C(NN=C(C#N)C#N)C=C2` [Levosimendan] was tested, and the “AC50 for growth inhibition (log10 M)” value was -4.78.
In the case of `Oc1cc(-c2nc(-c3ccccc3)[nH]c2-c2ccncc2)ccc1Cl`, the “AC50 for growth inhibition (log10 M)” value is reported as -4.88.
For `OCCn1cc(-c2cnc3nnn(Cc4ccc5ncccc5c4)c3n2)cn1`, the “AC50 for growth inhibition (log10 M)” value was -4.73.
`COc1cnc(N[S+](=O)([O-])c2ccc(N)cc2)nc1` [Sulfameter] was tested, and the “AC50 for growth inhibition (log10 M)” value was -5.53.
`O=C(O)CCNC(=O)c1ccc(/N=N/c2ccc(O)c(C(=O)O)c2)cc1` [Balsalazide disodium] was tested, and the “AC50 for growth inhibition (log10 M)” value was -4.68.
In the case of `CN1CC(=O)\N=C1\NC(=O)NC2=CC(=CC=C2)Cl` [Fenobam], the “AC50 for growth inhibition (log10 M)” value is reported as -4.68.
`O=[S+]([O-])(F)Cc1ccccc1` [PMSF] was tested, and the “AC50 for growth inhibition (log10 M)” value was -5.98.
`CC(C)c1cccc(C(C)C)c1O` [Propofol] was tested, and the “AC50 for growth inhibition (log10 M)” value was -4.88.
In the case of `COC(=O)[C@H](Cc1ccccc1)NC(=O)[C@@H](N)CC(=O)O` [Aspartame], the “AC50 for growth inhibition (log10 M)” value is reported as -4.93.
`CCn1c(-c2nonc2N)nc2cncc(CNC3CCNCC3)c21` was tested, and the “AC50 for growth inhibition (log10 M)” value was -4.88.
`O=C(Nc1ccccc1-c1cn2c(CN3CCNCC3)csc2n1)c1cnc2ccccc2n1` [SRT1720] was tested, and the “AC50 for growth inhibition (log10 M)” value was -4.58.
With `O=C(Nc1cccc(Cl)c1)Nc1ncc(CCNc2ncnc3ccsc23)s1` [SNS-314] the “AC50 for growth inhibition (log10 M)” value was -5.48.
`CC(C)C[C@H](CC(=O)O)C(=O)N[C@@H](Cc1c[nH]c2ccccc12)C(=O)N[C@@H](C)c1ccccc1` [GM-1489] was tested, and the “AC50 for growth inhibition (log10 M)” value was -5.53.
`CNC(=O)c1ccc(N2C(=S)N(c3ccc(C#N)c(C(F)(F)F)c3)C(=O)C2(C)C)cc1F` [MDV-3100] was tested, and the “AC50 for growth inhibition (log10 M)” value was -4.73.
`CCCCCCCCc1ccc(CCC(N)(CO)CO)cc1` [Fingolimod hydrochloride] was tested, and the “AC50 for growth inhibition (log10 M)” value was -4.93.
`Cc1[nH]c(/C=C2\C(=O)Nc3ccc([S+](=O)([O-])Cc4c(Cl)cccc4Cl)cc32)c(C)c1C(=O)N1CCC[C@@H]1CN1CCCC1` was tested, and the “AC50 for growth inhibition (log10 M)” value was -4.58.
For `C\C1=C\C(=O)C2=C(C=CC=C2)C1=O` [Menadione], the “AC50 for growth inhibition (log10 M)” value was -4.78.
In the case of `O=C(Oc1ccc([N+](=O)[O-])cc1)N1CCN(Cc2cccc(Oc3ccccc3)c2)CC1` [JZL-195], the “AC50 for growth inhibition (log10 M)” value is reported as -5.03.
With `Nc1ncnc2c1c(-c1cccc(OCc3ccccc3)c1)cn2C1CC(CN2CCC2)C1` (stereo not drawn) [NVP-AEW541] the “AC50 for growth inhibition (log10 M)” value was -5.28.
With `CCN(CC)CCCCNc1ncc2cc(-c3cc(OC)cc(OC)c3)c(NC(=O)NC(C)(C)C)nc2n1` the “AC50 for growth inhibition (log10 M)” value was -4.78.
In the case of `Nc1cc(N2CCCCC2)nc(N)[n+]1[O-]` [Minoxidil], the “AC50 for growth inhibition (log10 M)” value is reported as -5.13.
In the case of `O=[S+]([O-])(CC1CS1)c1ccc(Oc2ccccc2)cc1` (stereo not drawn) [SB-3CT], the “AC50 for growth inhibition (log10 M)” value is reported as -4.73.
`CC[C@H]1OC(=O)[C@H](C)[C@@H](O[C@H]2C[C@@](C)(OC)[C@@H](O)[C@H](C)O2)[C@H](C)[C@@H](O[C@@H]2O[C@H](C)C[C@H](N(C)C)[C@H]2O)[C@](C)(O)C[C@@H](C)CN(C)[C@H](C)[C@@H](O)[C@]1(C)O` [Azithromycin (AZ)] was tested, and the “AC50 for growth inhibition (log10 M)” value was -4.68.
`OC[C@H]1O[C@@H](O[C@@H]2O\C=C(/[C@H]3C\C=C(CO)/[C@@H]23)C(O)=O)[C@H](O)[C@@H](O)[C@@H]1O` [Geniposidic acid] was tested, and the “AC50 for growth inhibition (log10 M)” value was -5.28.
In the case of `CCN(CC)CCOc1ccc(/C(=C(\Cl)c2ccccc2)c2ccccc2)cc1` [Clomifene citrate], the “AC50 for growth inhibition (log10 M)” value is reported as -4.68.
For `CN(C)CCCNC(=O)c1ccc(-c2cc(O)c3ncccc3c2)cc1`, the “AC50 for growth inhibition (log10 M)” value was -4.73.
`N[C@@H](Cc1cc(I)c(Oc2cc(I)c(O)c(I)c2)c(I)c1)C(=O)O` [L-Thyroxine] was tested, and the “AC50 for growth inhibition (log10 M)” value was -5.63.
With `CC[C@@H](C(N)=O)N1CCCC1=O` [Levetiracetam] the “AC50 for growth inhibition (log10 M)” value was -4.88.
In the case of `CN(C)CCOC(c1ccccc1)c1ccccc1` [Diphenhydramine], the “AC50 for growth inhibition (log10 M)” value is reported as -5.33.
With `COC1(C[S+]([O-])c2ccccc2)CCN(CCc2c[nH]c3ccc(F)cc23)CC1` (stereo not drawn) the “AC50 for growth inhibition (log10 M)” value was -4.63.
`c1ccc2c(CN3CCNCC3)cccc2c1` [NMP] was tested, and the “AC50 for growth inhibition (log10 M)” value was -4.73.
With `C=C[C@H]1CN2CCC1C[C@@H]2[C@@H](O)c1ccnc2ccccc12` (stereo partly drawn) [Cinchonine dihydrochloride] the “AC50 for growth inhibition (log10 M)” value was -4.78.
With `COc1cc(C(=O)NS(=O)(=O)c2ccccc2C)ccc1Cc1cn(C)c2ccc(NC(=O)OC3CCCC3)cc12` [Zafirlukast] the “AC50 for growth inhibition (log10 M)” value was -4.78.
In the case of `Cc1ccccc1C(C(=O)NC1CCCCC1)N(C(=O)CNc1ccc(C#N)cc1)c1cccc(F)c1` (stereo not drawn) [IDH-C227], the “AC50 for growth inhibition (log10 M)” value is reported as -4.63.
For `CCN1CCN(Cc2ccc(-c3cc4c(N[C@H](C)c5ccccc5)ncnc4[nH]3)cc2)CC1` [AEE-788], the “AC50 for growth inhibition (log10 M)” value was -5.18.
In the case of `CN(C)CCC=C1C2=C(C=CC=C2)\C=C/C3=C1C=CC=C3` [Cyclobenzaprine hydrochloride], the “AC50 for growth inhibition (log10 M)” value is reported as -4.78.
For `Cc1cc(O)c2c3c4c(cc(O)c13)C(C)(C)C(=O)c1c(O)cc(O)c(c1-4)C2=O` [Resistomycin], the “AC50 for growth inhibition (log10 M)” value was -5.13.
In the case of `CCCN1CCO[C@@H]2c3cc(O)ccc3OC[C@H]21`, the “AC50 for growth inhibition (log10 M)” value is reported as -4.63.
For `CC1(C)C(=O)N(CCN2CCC(C(=O)c3ccc(F)cc3)CC2)c2ccccc21`, the “AC50 for growth inhibition (log10 M)” value was -4.78.
`CC#CCn1c(N2CCC[C@@H](N)C2)nc2c1c(=O)n(Cc1nc(C)c3ccccc3n1)c(=O)n2C` [Linagliptin] was tested, and the “AC50 for growth inhibition (log10 M)” value was -4.73.
In the case of `CN(C)c1ccccc1CN1CCCN(Cc2ccccc2N(C)C)C1c1ccncc1` [GANT61], the “AC50 for growth inhibition (log10 M)” value is reported as -4.68.

Each molecule was assayed on SB.msgc-1 in the same assay as above. Details: SB.msgc-1 (sporadic gastric cancer).
In short: as §1
For `C[C@@H]1C/C=C/C=C/C=C/C=C/[C@@H](O[C@@H]2O[C@H](C)[C@@H](O)[C@H](N)[C@@H]2O)C[C@@H]2O[C@](O)(C[C@@H](O)C[C@@H]3O[C@H]3/C=C/C(=O)O1)C[C@H](O)[C@H]2C(=O)O` [Natamycin], the “AC50 for growth inhibition (log10 M)” value was -5.23.
`O=C1NC(=O)/C(=C/c2ccc3c(c2)OC(F)(F)O3)S1` was tested, and the “AC50 for growth inhibition (log10 M)” value was -4.83.
`CC1=NN(c2ccc(C)c(C)c2)C(=O)/C1=N/Nc1cccc(-c2cccc(C(=O)O)c2)c1O` [Eltrombopag olamine] was tested, and the “AC50 for growth inhibition (log10 M)” value was -4.83.
In the case of `CC(=O)N1CCN(c2ccc(OC[C@H]3CO[C@](Cn4ccnc4)(c4ccc(Cl)cc4Cl)O3)cc2)CC1` [Ketoconazole], the “AC50 for growth inhibition (log10 M)” value is reported as -4.83.
With `CC/1=C(/C(CC(=O)N1)C2=CC=C(C=C2)C(F)(F)F)C(=O)NC3=C(F)C=C4[NH]N=CC4=C3` (stereo not drawn) the “AC50 for growth inhibition (log10 M)” value was -5.03.
In the case of `COc1ccc2cc1Oc1ccc(cc1)C[C@H]1c3cc(c(OC)cc3CCN1C)Oc1c(OC)c(OC)cc3c1[C@H](C2)N(C)CC3` [Tetrandrine], the “AC50 for growth inhibition (log10 M)” value is reported as -4.73.
`O=C(Nc1cc(Cl)cc2c1[nH]c1cnccc12)c1cccnc1` [PS-1145] was tested, and the “AC50 for growth inhibition (log10 M)” value was -4.73.
For `Clc1ccc(-c2nc3sccn3c2/C=N/OCc2ccc(Cl)c(Cl)c2)cc1` [CITCO], the “AC50 for growth inhibition (log10 M)” value was -4.73.
For `COc1cc([C@@H]2c3cc4c(cc3[C@H](O)[C@H]3COC(=O)[C@H]23)OCO4)cc(OC)c1OC` [Picropodophyllin], the “AC50 for growth inhibition (log10 M)” value was -8.43.
`Clc1ccc(C(Cn2ccnc2)OCc2ccsc2Cl)c(Cl)c1` (stereo not drawn) [Tioconazole] was tested, and the “AC50 for growth inhibition (log10 M)” value was -4.63.
In the case of `Cc1ccc(Nc2nccc(N(C)c3ccc4c(C)n(C)nc4c3)n2)cc1[S+](N)(=O)[O-]` [Pazopanib], the “AC50 for growth inhibition (log10 M)” value is reported as -4.78.
With `CC[C@@H]([C@H](C)O)n1ncn(-c2ccc(N3CCN(c4ccc(OCC5CO[C@@](Cn6cncn6)(c6ccc(F)cc6F)C5)cc4)CC3)cc2)c1=O` (stereo partly drawn) [Posaconazole] the “AC50 for growth inhibition (log10 M)” value was -4.73.
In the case of `O=C(C1CC1)N1CC[C@@H](Cn2c(-c3ccc(-c4ccc5occc5c4)cc3)nc3cnccc32)C1`, the “AC50 for growth inhibition (log10 M)” value is reported as -4.73.
With `CCCCCCCCCCCCCC(=O)N[C@H](CO)[C@H](O)c1ccc([N+](=O)[O-])cc1` [D-NMAPPD] the “AC50 for growth inhibition (log10 M)” value was -4.93.
